According to PMC4109836, “Analysis of the co-operative interaction between the allosterically regulated proteins GK and GKRP using tryptophan fluorescence” (Biochemical Journal, 2014):
Substitutions are numbered along the chain they refer to. pKd: −log10 of the molar value.

Experiments:
GK-W99R/W167F/W257F = target: T1, GK-W99R/W167F/W257F (Homo sapiens, UniProt P35557, W167F/W257F/W99R); design: method as in ref 4 (a number printed in a supplementary file, which may have a reference list of its own: not looked up in the article's list); settings: cited from earlier work
T1 construct: GST (cleaved yes); made in house; host or cells: Escherichia coli
T1 sequence (P35557 1-465 W99R/W167F/W257F): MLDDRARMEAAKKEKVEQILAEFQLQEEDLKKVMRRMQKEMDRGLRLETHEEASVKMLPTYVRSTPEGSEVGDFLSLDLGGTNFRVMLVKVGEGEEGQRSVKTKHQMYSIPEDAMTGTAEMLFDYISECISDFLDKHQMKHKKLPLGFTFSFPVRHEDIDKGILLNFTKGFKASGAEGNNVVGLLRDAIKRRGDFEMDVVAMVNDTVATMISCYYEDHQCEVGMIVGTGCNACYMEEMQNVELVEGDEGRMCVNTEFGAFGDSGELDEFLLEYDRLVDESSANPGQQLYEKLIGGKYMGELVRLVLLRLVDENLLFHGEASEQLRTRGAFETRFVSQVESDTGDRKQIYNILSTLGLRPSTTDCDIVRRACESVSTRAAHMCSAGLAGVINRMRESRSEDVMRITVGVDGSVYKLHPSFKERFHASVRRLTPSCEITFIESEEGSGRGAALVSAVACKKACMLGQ

GK-T65W/W99R/W167F/W257F = target: T2, GK-T65W/W99R/W167F/W257F (Homo sapiens, UniProt P35557, T65W/W167F/W257F/W99R); test: GKA and glucose binding by GK-T65W/W99R/W167F/W257F measured by TF; settings: 25°C
T2 construct: GST (cleaved yes); made in house; host or cells: Escherichia coli
T2 sequence (P35557 1-465 T65W/W99R/W167F/W257F): T1 sequence (P35557 1-465 W99R/W167F/W257F) with T65W

[1] = D-glucose titration in the presence of GKA (20 μM)

OC[C@H]1OC(O)[C@H](O)[C@@H](O)[C@@H]1O (stereo partly drawn) [D-Glucose, D-glucose]
H (glucose) (GK-W99R/W167F/W257F): 1.45
glucose S0.5 (GK-W99R/W167F/W257F): 4.8 mM
H (GK-T65W/W99R/W167F/W257F; [1]): 1
pKd (GK-T65W/W99R/W167F/W257F; [1]): 3.13
H (GK-T65W/W99R/W167F/W257F; D-glucose titration): 1
pKd (GK-T65W/W99R/W167F/W257F; D-glucose titration): 2.34
